Values of other authors, collected in patent publication US7294332B2, “Combination therapy (temozolomide and α-IFN) for advanced cancer” (Schering Corporation, priority 1995, dated 2007).

Legend:
advanced melanoma [1] = conditions: patients with advanced melanoma; Journal of Clinical Oncology, Vol 13, No. 4 (April), 1995
advanced melanoma [2] = conditions: patients having advanced melanoma; Newlands ES, et al. Br J Cancer 65 (2), 1992

SMILES: Cn1nnc2c(C(N)=O)ncn2c1=O [Temozolomide, 3,4-dihydro-3-methyl-4-oxoimidazo-[5,1-d]1,2,3,4-tetrazin-8-carboximide]
- clinical response achieved, % of patients (advanced melanoma [1]): 21%
- clinical responses achieved, % of patients (advanced melanoma [2]): 17%
